Measurements published in patent publication US4044051A, “9[2-(1-Al koxy-ethyl)-5,5-dimethyl-cyclopent-1-en-1-yl]-3,7-dimethyl-nona-2,4,6,8-t etraen acid compounds” (Hoffmann-La Roche Inc., priority 1971, dated 1977).

How the values were obtained:
[1] = acute toxicity (delayed toxicity in mice after 20 days), i.p. in rape oil; format: in vivo; conditions: mouse, ip
Excerpt: (§1) The toxicity of the polyene compound of formula I is slight.

[2] = tested on: mice; assay: as above; format: in vivo
Excerpt: as §1

In the case of `COC(C)C1=C(C=CC(C)=CC=CC(C)=CC(=O)O)C(C)(C)CC1` (centres unmarked) [9-[2-(1-methoxyethyl)-5,5-dimethyl-cyclopent-1-en-1-y1]-3,7-dimethyl-nona-2,4,6,8-tetraen-1-acid], the LD50 at 24 h ([1]; after 1 day) is reported as > 4000 mg/kg, the LD50 at 240 h ([1]; after 10 days) is reported as 350 mg/kg and the LD10 ([2]; after 1 day) is reported as > 4000 mg/kg. For the same molecule, the LD90 ([2]; after 1 day) was > 4000 mg/kg, the LD10 ([2]; after 10 days) was 290 mg/kg and the LD90 ([2]; after 10 days) was 430 mg/kg. It also gave an LD10 ([2]; after 20 days) of 290 mg/kg and an LD90 ([2]; after 20 days) of 430 mg/kg.
